Consider 31 compounds from patent publication US11192891B2, “Diazaspiro ROCK inhibitors” (BRISTOL-MYERS SQUIBB COMPANY, priority 2017, dated 2021).

In the experiment the target is ROCK2 (Homo sapiens, UniProt O75116). Kind of experiment: ROCK kinase inhibition assay, FITC peptide substrate, LABCHIP 3000 readout. The settings on record: 5 μM ATP, 1.5 μM peptide substrate. It counts as biochemical. The essentials:
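Rho kinase variants started the reaction with compound present (DMSO <2%); after incubation, EDTA stop, and phosphorylated and non-phosphorylated peptide separated by microfluidic electrophoresis. Dose-response format, inhibition calculated at each concentration.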

Sequence of ROCK2 (O75116 whole entry, species assumed): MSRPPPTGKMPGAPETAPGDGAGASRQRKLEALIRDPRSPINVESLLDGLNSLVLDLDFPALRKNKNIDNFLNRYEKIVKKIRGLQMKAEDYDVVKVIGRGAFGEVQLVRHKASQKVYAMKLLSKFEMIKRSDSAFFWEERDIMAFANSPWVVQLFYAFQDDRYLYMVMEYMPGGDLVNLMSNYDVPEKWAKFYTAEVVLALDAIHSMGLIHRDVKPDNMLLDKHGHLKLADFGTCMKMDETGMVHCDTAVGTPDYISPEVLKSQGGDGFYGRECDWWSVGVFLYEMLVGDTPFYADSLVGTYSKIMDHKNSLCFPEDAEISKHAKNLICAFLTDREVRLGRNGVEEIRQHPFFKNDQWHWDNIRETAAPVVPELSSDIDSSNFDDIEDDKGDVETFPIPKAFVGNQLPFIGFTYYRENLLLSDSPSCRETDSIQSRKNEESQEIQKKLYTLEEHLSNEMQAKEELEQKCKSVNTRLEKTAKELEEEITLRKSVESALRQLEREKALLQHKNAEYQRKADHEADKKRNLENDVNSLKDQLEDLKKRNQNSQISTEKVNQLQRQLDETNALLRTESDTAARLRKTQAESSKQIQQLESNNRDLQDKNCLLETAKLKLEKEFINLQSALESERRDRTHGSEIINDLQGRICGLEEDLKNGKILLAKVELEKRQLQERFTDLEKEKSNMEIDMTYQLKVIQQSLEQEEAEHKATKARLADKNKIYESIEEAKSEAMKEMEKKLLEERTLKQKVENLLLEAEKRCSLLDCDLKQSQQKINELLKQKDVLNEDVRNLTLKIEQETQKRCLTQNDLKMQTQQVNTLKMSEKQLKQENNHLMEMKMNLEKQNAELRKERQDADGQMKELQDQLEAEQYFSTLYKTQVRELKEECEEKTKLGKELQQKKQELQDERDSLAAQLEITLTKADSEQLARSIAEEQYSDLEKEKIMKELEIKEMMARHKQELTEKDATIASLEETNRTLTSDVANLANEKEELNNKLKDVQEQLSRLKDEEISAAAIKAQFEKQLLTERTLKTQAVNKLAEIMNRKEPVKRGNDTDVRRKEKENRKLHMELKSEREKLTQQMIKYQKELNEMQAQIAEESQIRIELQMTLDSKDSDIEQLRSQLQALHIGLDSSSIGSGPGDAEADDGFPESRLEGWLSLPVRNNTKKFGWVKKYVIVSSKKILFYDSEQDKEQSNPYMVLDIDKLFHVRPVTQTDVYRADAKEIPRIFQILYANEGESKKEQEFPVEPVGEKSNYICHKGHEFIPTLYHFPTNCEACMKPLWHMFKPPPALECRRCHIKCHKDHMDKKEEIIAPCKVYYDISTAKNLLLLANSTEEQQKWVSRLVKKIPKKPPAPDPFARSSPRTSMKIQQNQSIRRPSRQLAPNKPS

A word on the IC50: it is the point on the concentration scale where inhibition reaches its midpoint. `COc1cc(N2CCC3(CCN(C(=O)c4ccc(N5CCN(Cc6cccn6C)CC5)cc4)CC3)C2=O)ccc1-c1cn[nH]c1` [Example 228, 2-[3-methoxy-4-(1H-pyrazol-4-yl)phenyl]-8-(4-{4-[(1-methyl-1H-pyrrol-2-yl)methyl]piperazin-1-yl}benzoyl)-2,8-diazaspiro[4.5]decan-1-one]: the IC50 amounted to 0.9 nM. This lies in the sub-nanomolar range.
As for `COc1cc(N2CCC3(CCN(S(=O)(=O)c4ccc5ncsc5c4)CC3)C2=O)ccc1-c1cn[nH]c1` [Example 211, 8-(1,3-benzothiazole-6-sulfonyl)-2-[3-methoxy-4-(1H-pyrazol-4-yl)phenyl]-2,8-diazaspiro[4.5]decan-1-one], the IC50 is 46 nM.
Under `COc1cc(N2CCC3(CCN(C(=O)c4nnc(-c5ccccn5)[nH]c4=O)CC3)C2=O)ccc1-c1cn[nH]c1` [Example 125, 2-[3-methoxy-4-(1H-pyrazol-4-yl)phenyl]-8-[5-oxo-3-(pyridin-2-yl)-4,5-dihydro-1,2,4-triazine-6-carbonyl]-2,8-diazaspiro[4.5]decan-1-one] stands 26 nM; under `COc1cc(N2CCC3(CCN(C(=O)c4cccc5cccnc45)CC3)C2=O)ccc1-c1cn[nH]c1` [Example 149, 2-[3-methoxy-4-(1H-pyrazol-4-yl)phenyl]-8-(quinoline-8-carbonyl)-2,8-diazaspiro[4.5]decan-1-one], 251 nM.
As for `COc1cc(N2CCC3(CCN(S(=O)(=O)c4ccc(S(N)(=O)=O)cc4)CC3)C2=O)ccc1-c1cn[nH]c1` [Example 213, 4-({2-[3-methoxy-4-(1H-pyrazol-4-yl)phenyl]-1-oxo-2,8-diazaspiro[4.5]decan-8-yl}sulfonyl)benzene-1-sulfonamide], the half-maximal inhibitory concentration (IC50) was 456 nM.
Regarding `CN1CCN(c2ccc(C(=O)N3CCC4(CC3)CCN(c3ccc(-c5ccnc6[nH]ccc56)cc3)C4=O)cc2)CC1` [Example 35, 8-[4-(4-methylpiperazin-1-yl)benzoyl]-2-(4-{1H-pyrrolo[2,3-b]pyridin-4-yl}phenyl)-2,8-diazaspiro[4.5]decan-1-one], the IC50 amounted to 0.3 nM.
For `COc1cc(N2CCC3(CCN(C(=O)c4ccc(Cn5ccnc5)cc4)CC3)C2=O)ccc1-c1cn[nH]c1` [Example 183, 8-{4-[(1H-imidazol-1-yl)methyl]benzoyl}-2-[3-methoxy-4-(1H-pyrazol-4-yl)phenyl]-2,8-diazaspiro[4.5]decan-1-one] the value was 23 nM; for `COc1cc(N2CCC3(CCN(S(=O)(=O)c4ccc5[nH]c(=O)[nH]c(=O)c5c4)CC3)C2=O)ccc1-c1cn[nH]c1` [Example 209, 6-({2-[3-methoxy-4-(1H-pyrazol-4-yl)phenyl]-1-oxo-2,8-diazaspiro[4.5]decan-8-yl}sulfonyl)-1,2,3,4-tetrahydroquinazoline-2,4-dione], 410 nM; for `COC(=O)c1ccc(S(=O)(=O)N2CCC3(CCN(c4ccc(-c5cn[nH]c5)c(OC)c4)C3=O)CC2)o1` [Example 208, methyl 5-({2-[3-methoxy-4-(1H-pyrazol-4-yl)phenyl]-1-oxo-2,8-diazaspiro[4.5]decan-8-yl}sulfonyl)furan-2-carboxylate], 2070 nM.
`CN1CCN(c2ccc(C(=O)N3CCC4(CC3)CCN(c3ccc(-c5ccnc(N)c5)cc3)C4=O)cc2)CC1` [Example 36, 2-[4-(2-aminopyridin-4-yl)phenyl]-8-[4-(4-methylpiperazin-1-yl)benzoyl]-2,8-diazaspiro[4.5]decan-1-one]: the IC50 is 2 nM.
For the compound `COc1cc(N2CCC3(CCN(C(=O)c4ccc(Oc5ncccn5)cc4)CC3)C2=O)ccc1-c1cn[nH]c1` [Example 105, 2-[3-methoxy-4-(1H-pyrazol-4-yl)phenyl]-8-[4-(pyrimidin-2-yloxy)benzoyl]-2,8-diazaspiro[4.5]decan-1-one], the half-maximal inhibitory concentration (IC50) came to 78 nM.
For `COc1cc(N2CCC3(CCN(C(=O)c4cc(=O)n5nnnc5[nH]4)CC3)C2=O)ccc1-c1cn[nH]c1` [Example 129, 2-[3-methoxy-4-(1H-pyrazol-4-yl)phenyl]-8-{7-oxo-4H,7H-[1,2,3,4]tetrazolo[1,5-a]pyrimidine-5-carbonyl}-2,8-diazaspiro[4.5]decan-1-one] the value was 292 nM; for `COc1cc(N2CCC3(CCN(C(=O)c4ccc(N5CCN(Cc6ccc(OCCCN(C)C)cc6)CC5)cc4)CC3)C2=O)ccc1-c1cn[nH]c1` [Example 237, 8-{4-[4-({4-[3-(dimethylamino)propoxy]phenyl}methyl)piperazin-1-yl]benzoyl}-2-[3-methoxy-4-(1H-pyrazol-4-yl)phenyl]-2,8-diazaspiro[4.5]decan-1-one], 0.1 nM.
For `CCc1ccc(C(=O)N2CCC3(CC2)CCN(c2ccc(-c4cn[nH]c4)c(OC)c2)C3=O)cc1` [Example 20, 8-(4-ethylbenzoyl)-2-[3-methoxy-4-(1H-pyrazol-4-yl)phenyl]-2,8-diazaspiro[4.5]decan-1-one] the value was 50 nM; for `COc1cc(N2CCC3(CCN(C(=O)c4ccc(N5CCN(CCOCc6ccccc6)CC5)cc4)CC3)C2=O)ccc1-c1cn[nH]c1` [Example 221, 8-(4-{4-[2-(benzyloxy)ethyl]piperazin-1-yl}benzoyl)-2-[3-methoxy-4-(1H-pyrazol-4-yl)phenyl]-2,8-diazaspiro[4.5]decan-1-one], 0.4 nM.
`O=C(c1ccccc1)N1CCC2(CCN(c3ccc(-c4cn[nH]c4)cc3)C2=O)C1` (stereo not shown) [Example 42, 7-benzoyl-2-[4-(1H-pyrazol-4-yl)phenyl]-2,7-diazaspiro[4.4]nonan-1-one]: the half-inhibitory concentration (IC50) was 1220 nM. This IC50 lies about 3000-fold higher than the previous one.
For `COc1cc(N2CCC3(CCN(S(=O)(=O)c4ccc(S(C)(=O)=O)cc4)CC3)C2=O)ccc1-c1cn[nH]c1` [Example 218, 8-(4-methanesulfonylbenzenesulfonyl)-2-[3-methoxy-4-(1H-pyrazol-4-yl)phenyl]-2,8-diazaspiro[4.5]decan-1-one] the value was 843 nM.
Under `COc1cc(N2CCC3(CCN(C(=O)c4ccc(Oc5ccccc5)cc4)CC3)C2=O)ccc1-c1cn[nH]c1` [Example 60, 2-[3-methoxy-4-(1H-pyrazol-4-yl)phenyl]-8-(4-phenoxybenzoyl)-2,8-diazapsiro[4.5]decan-1-one] stands 54 nM; under `COc1cc(N2CCC3(CCN(C(=O)c4c[nH]c5ccc(C#N)cc45)CC3)C2=O)ccc1-c1cn[nH]c1` [Example 201, 3-{2-[3-methoxy-4-(1H-pyrazol-4-yl)phenyl]-1-oxo-2,8-diazaspiro[4.5]decane-8-carbonyl}-1H-indole-5-carbonitrile], 718 nM; under `COc1cc(N2CCC3(CCN(C(=O)c4cnc(Cl)cn4)CC3)C2=O)ccc1-c1cn[nH]c1` [Example 115, 8-(5-chloropyrazine-2-carbonyl)-2-[3-methoxy-4-(1H-pyrazol-4-yl)phenyl]-2,8-diazaspiro[4.5]decan-1-one], 200 nM.
In turn, `COc1cc(N2CCC3(CCN(C(=O)c4cccc(Oc5ccccc5)c4)CC3)C2=O)ccc1-c1cn[nH]c1` [Example 57, 2-[3-methoxy-4-(1H-pyrazol-4-yl)phenyl]-8-(3-phenoxybenzoyl)-2,8-diazaspiro[4.5]decan-1-one] came in with an IC50 of 118 nM.
Take `COc1cc(N2CCC3(CCN(C(=O)c4ccc(C(C)C)cc4)CC3)C2=O)ccc1-c1cn[nH]c1` [Example 92, 2-[3-methoxy-4-(1H-pyrazol-4-yl)phenyl]-8-[4-(propan-2-yl)benzoyl]-2,8-diazaspiro[4.5]decan-1-one]: inhibition was half-maximal at 12 nM (IC50).
For `COc1cc(N2CCC3(CCN(C(=O)c4ccc(N5CCN(Cc6cnc7ccccc7n6)CC5)cc4)CC3)C2=O)ccc1-c1cn[nH]c1` [Example 219, 2-[3-methoxy-4-(1H-pyrazol-4-yl)phenyl]-8-(4-{4-[(quinoxalin-2-yl)methyl]piperazin-1-yl}benzoyl)-2,8-diazaspiro[4.5]decan-1-one] the value was 1.9 nM; for `COc1cc(N2CCC3(CCN(C(=O)c4cnc5ccccc5c4)CC3)C2=O)ccc1-c1cn[nH]c1` [Example 74, 2-[3-methoxy-4-(1H-pyrazol-4-yl)phenyl]-8-(quinoline-3-carbonyl)-2,8-diazaspiro[4.5]decan-1-one], 78 nM.
Under `COc1ccc(C(=O)N2CCC3(CC2)CCN(c2ccc(-c4cn[nH]c4)c(OC)c2)C3=O)nc1` [Example 16, 2-[3-methoxy-4-(1H-pyrazol-4-yl)phenyl]-8-(5-methoxypyridine-2-carbonyl)-2,8-diazaspiro[4.5]decan-1-one] stands 13 nM; under `O=C(c1ccccc1)N1CCC2(CC1)CCN(c1ccc(-c3cn[nH]c3)cc1)C2=O` [Example 1, 8-benzoyl-2-[4-(1H-pyrazol-4-yl)phenyl]-2,8-diazaspiro[4.5]decan-1-one], 326 nM; under `COc1cc(N2CCC3(CCN(C(=O)c4cnccn4)CC3)C2=O)ccc1-c1cn[nH]c1` [Example 71, 2-[3-methoxy-4-(1H-pyrazol-4-yl)phenyl]-8-(pyrazine-2-carbonyl)-2,8-diazaspiro[4.5]decan-1-one], 289 nM.
For `COc1cc(N2CCC3(CCN(C(=O)c4ccc(N(C)C)cc4)CC3)C2=O)ccc1-c1cn[nH]c1` [Example 21, 8-[4-(dimethylamino)benzoyl]-2-[3-methoxy-4-(1H-pyrazol-4-yl)phenyl]-2,8-diazaspiro[4.5]decan-1-one] the value was 16 nM; for `COc1ncc(C(=O)N2CCC3(CC2)CCN(c2ccc(-c4cn[nH]c4)c(OC)c2)C3=O)cn1` [Example 99, 2-[3-methoxy-4-(1H-pyrazol-4-yl)phenyl]-8-(2-methoxypyrimidine-5-carbonyl)-2,8-diazaspiro[4.5]decan-1-one], 464 nM; for `COc1cc(N2CCC3(CCN(C(=O)c4cn5nc[nH]c(=O)c5c4C)CC3)C2=O)ccc1-c1cn[nH]c1` [Example 133, 2-[3-methoxy-4-(1H-pyrazol-4-yl)phenyl]-8-{5-methyl-4-oxo-3H,4H-pyrrolo[2,1-f][1,2,4]triazine-6-carbonyl}-2,8-diazaspiro[4.5]decan-1-one], 88 nM.
Consider `COc1cc(N2CCC3(CCN(C(=O)c4cnc5n(c4=O)CCS5)CC3)C2=O)ccc1-c1cn[nH]c1` [Example 81, 2-[3-methoxy-4-(1H-pyrazol-4-yl)phenyl]-8-{5-oxo-2H,3H,5H-[1,3]thiazolo[3,2-a]pyrimidine-6-carbonyl}-2,8-diazaspiro[4.5]decan-1-one], for which the IC50 worked out at 57 nM.
